Calls of active or inactive are those of the source. The rule behind the calls is not given here.
What was measured:
[1] = target: T1, Tubulin alpha (Homo sapiens) (UniProt P0DPH7+P68366+Q71U36+P68363+Q9BQE3+Q6PEY2+A6NHL2+Q9NY65); experiment: Induction of Alpha tubulin degradation in human HCT-116 cells incubated for 24 hrs by immunoblot analysis; assay type: cell-based; details: dose 0.3-30 µM, DDE = dose-dependent effect
HeLa [2] = experiment: Reduction in Alpha tubulin mRNA expression in human HeLa cells at 1 uM measured upto 16 hrs by qPCR analysis; assay type: functional, cell-based
Tubulin (Sus scrofa) = Tubulin (Sus scrofa) (UniProt P02554+P02550); experiment: Induction of porcine tubulin aggregation assessed as formation of spherical sized tubulin aggregates at 20 uM incubated for 4 hrs by TEM analysis; assay type: protein assay
Tubulin (Homo sapiens) = Tubulin (Homo sapiens) (UniProt P68371+Q9H4B7+P0DPH7+P68366+Q13509+Q71U36+P04350+Q3ZCM7+P07437+P68363+Q9BQE3+Q6PEY2+Q13885+Q9BVA1+Q9BUF5); experiment: Induction of tubulin denaturation (unknown origin) pre incubated for 2 to 8 hrs with compound followed by GH addition measured after 30 mins by spectrophotometer based microplate reader method; assay type: protein-complex assay; details: time 2.5-8.5 hrs
HeLa [3] = experiment: Reduction in Beta tubulin mRNA expression in human HeLa cells at 1 uM measured upto 16 hrs by qPCR analysis; assay type: functional, cell-based
[4] = target: T1, Tubulin alpha (Homo sapiens); experiment: Induction of Alpha tubulin degradation in human HeLa cells incubated for 24 hrs by immunoblot analysis; assay type: cell-based; details: DDE = dose-dependent effect
[5] = target: T2, Tubulin beta (Homo sapiens) (UniProt P68371+Q9H4B7+Q13509+P04350+Q3ZCM7+P07437+Q13885+Q9BVA1+Q9BUF5+A6NNZ2); experiment: Induction of Beta tubulin degradation in human HeLa cells incubated for 24 hrs by immunoblot analysis; assay type: cell-based; details: DDE = dose-dependent effect
[6] = target: T2, Tubulin beta (Homo sapiens); experiment: Induction of Beta tubulin degradation in human HCT-116 cells incubated for 24 hrs by immunoblot analysis; assay type: cell-based; details: dose 0.3-30 µM, DDE = dose-dependent effect
[7] = target: T1, Tubulin alpha (Homo sapiens); experiment: Induction of Alpha tubulin degradation in human HeLa cells at 1 uM incubated for 16 hrs in presence of maytansine by immunoblot analysis; assay type: cell-based
[8] = target: T2, Tubulin beta (Homo sapiens); experiment: Induction of Beta tubulin degradation in human HeLa cells at 1 uM incubated for 16 hrs in presence of pironetin by immunoblot analysis; assay type: cell-based
HeLa [9] = experiment: Antiproliferative activity against human HeLa cells assessed as cell viability at 0.001 to 100 uM incubated for 48 hrs by MTT assay; assay type: functional, cell-based; details: dose 0.001-100 µM
[10] = target: T2, Tubulin beta (Homo sapiens); experiment: Induction of Beta tubulin degradation in human HeLa cells at 0.001 to 100 uM incubated for 16 hrs by immunoblotting analysis; assay type: cell-based; details: dose 0.001-100 µM

Chain of Tubulin (Sus scrofa) (P02550 whole entry, looked up): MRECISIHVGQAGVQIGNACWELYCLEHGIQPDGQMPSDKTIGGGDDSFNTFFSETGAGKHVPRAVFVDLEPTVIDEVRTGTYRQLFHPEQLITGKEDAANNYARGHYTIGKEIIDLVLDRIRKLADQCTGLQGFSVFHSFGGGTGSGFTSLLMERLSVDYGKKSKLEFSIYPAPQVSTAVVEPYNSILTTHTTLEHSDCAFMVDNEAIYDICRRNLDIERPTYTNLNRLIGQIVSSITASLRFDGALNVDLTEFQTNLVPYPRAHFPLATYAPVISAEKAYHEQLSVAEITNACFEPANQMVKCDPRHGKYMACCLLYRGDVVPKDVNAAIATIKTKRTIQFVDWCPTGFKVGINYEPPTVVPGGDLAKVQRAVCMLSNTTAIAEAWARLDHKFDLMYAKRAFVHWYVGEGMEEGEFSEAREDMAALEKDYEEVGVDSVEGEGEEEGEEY
Chain of Tubulin (Sus scrofa) (P02554 whole entry, looked up): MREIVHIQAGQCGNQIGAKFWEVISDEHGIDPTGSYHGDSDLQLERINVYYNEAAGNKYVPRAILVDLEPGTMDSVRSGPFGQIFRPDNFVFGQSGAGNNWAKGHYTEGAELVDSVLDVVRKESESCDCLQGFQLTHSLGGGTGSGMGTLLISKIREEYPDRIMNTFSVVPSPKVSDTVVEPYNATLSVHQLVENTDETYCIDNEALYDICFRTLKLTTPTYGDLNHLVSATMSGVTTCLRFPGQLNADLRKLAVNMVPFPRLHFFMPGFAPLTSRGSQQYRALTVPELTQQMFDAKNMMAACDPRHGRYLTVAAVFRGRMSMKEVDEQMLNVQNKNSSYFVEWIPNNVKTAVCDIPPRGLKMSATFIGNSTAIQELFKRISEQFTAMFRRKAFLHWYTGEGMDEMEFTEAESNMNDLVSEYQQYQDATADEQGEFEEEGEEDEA

Row | Activity [1] | Activity (Tubulin (Sus scrofa)) | Activity (Tubulin (Homo sapiens)) | Activity [4] | Activity [5] | Activity [6] | Activity [7] | Activity [8] | Activity [10] | Compound | Activity (HeLa [2]) | Activity (HeLa [3]) | Activity (HeLa [9])
1 | Dde | Active | Active | Dde | Dde | Dde | Active | Active | – | COc1cccc(-c2cc(NCc3ccc4c(c3)OCO4)nc(N)n2)c1 | Active | Active | –
2 | – | – | – | – | – | – | – | – | Active | CCCCNc1cc2c(cn1)[nH]c1ccccc12 | – | – | Active

— ChEMBL document CHEMBL5143724, “Small Molecules Promote Selective Denaturation and Degradation of Tubulin Heterodimers through a Low-Barrier Hydrogen Bond” (J Med Chem, 2022)
